{"source": "patent US20190255075A1", "about": "“TREATMENT OF PROSTATE CANCER” (priority 2018, published 2019)", "origin": "cited, not measured here", "key": {"prostate cancer cells": {"system": "prostate cancer cells", "details": "sirolimus used alone"}, "[1]": {"system": "hormone refractory prostate cancer", "details": "single agent"}}}
{"compound": "CO[C@H]1C[C@@H]2CC[C@@H](C)[C@@](O)(O2)C(=O)C(=O)N2CCCC[C@H]2C(=O)O[C@H]([C@H](C)C[C@@H]2CC[C@@H](O)[C@H](OC)C2)CC(=O)[C@H](C)/C=C(\\C)[C@@H](O)[C@@H](OC)C(=O)[C@H](C)C[C@H](C)/C=C/C=C/C=C/1C", "note": "[Sirolimus, sirolimus]", "values": [{"measurement": "effect on prostate cancer cells", "setting": "prostate cancer cells", "result": "limited effects"}, {"measurement": "patients with positive outcomes", "setting": "[1]; of twelve evaluable patients with hormone refractory prostate cancer", "result": "two"}, {"measurement": "decrease in PSA", "setting": "[1]; one of the two responding patients, with partial radiographic response", "result": 50, "unit": "%"}]}
